Measured values: patent EP2561858B1, “A composition for activating hair follicle stem cells to stimulate hair growth” (LABO Cosprophar AG, priority 2011, dated 2013)

Assays:
[1] = molecular target: T1, 5-alpha reductase activity I (Homo sapiens, UniProt P18405); assay: 5-alpha reductase inhibition in skin fibroblasts (marked Testosterone to DHT, TLC), type I; format: cell-based; details: 100µM, 1 hour at 37°C preincubation, 3 hr with marked Testosterone
T1 construct: skin fibroblasts, cells that contain different types of enzymes involved in the biosynthesis of steroids, were used; endogenous in cells; host or cells: skin fibroblasts
T1 sequence (P18405 1-259): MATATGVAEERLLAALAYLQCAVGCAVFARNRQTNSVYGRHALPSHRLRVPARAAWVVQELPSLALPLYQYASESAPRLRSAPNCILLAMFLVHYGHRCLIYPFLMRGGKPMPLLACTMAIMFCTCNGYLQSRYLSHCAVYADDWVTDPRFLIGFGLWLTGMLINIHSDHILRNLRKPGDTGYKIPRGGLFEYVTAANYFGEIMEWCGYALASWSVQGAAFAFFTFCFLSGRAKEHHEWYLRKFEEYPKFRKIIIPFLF
Description: (§1) In the experiment, skin fibroblasts, cells that contain different types of enzymes involved in the biosynthesis of steroids, were used. These cells represent a good system for the evaluation of the kinetic parameters of enzyme inhibitors such as 5-alpha reductase, delegated to steroid metabolism.
(§2) Fibroblasts were or were not incubated with 100µM of active Biochanin-A for 1 hour at 37°C before the addition of a known quantity of marked Testosterone, at the concentration of 1.5 micromoles. After 3 hr we proceeded with the extraction of the radioactive steroids. The amount of marked Testosterone and DHT are determined by TLC (Thin Layer Chromatography) to quantify 5-alpha reductase activity.

[2] = molecular target: T2, 5-alpha reductase activity II (Homo sapiens, UniProt P31213); assay: 5-alpha reductase inhibition in skin fibroblasts (marked Testosterone to DHT, TLC), type II; format: cell-based; details: 100µM, 1 hour at 37°C preincubation, 3 hr with marked Testosterone
T2 construct: skin fibroblasts, cells that contain different types of enzymes involved in the biosynthesis of steroids, were used; endogenous in cells; host or cells: skin fibroblasts
T2 sequence (P31213 1-254): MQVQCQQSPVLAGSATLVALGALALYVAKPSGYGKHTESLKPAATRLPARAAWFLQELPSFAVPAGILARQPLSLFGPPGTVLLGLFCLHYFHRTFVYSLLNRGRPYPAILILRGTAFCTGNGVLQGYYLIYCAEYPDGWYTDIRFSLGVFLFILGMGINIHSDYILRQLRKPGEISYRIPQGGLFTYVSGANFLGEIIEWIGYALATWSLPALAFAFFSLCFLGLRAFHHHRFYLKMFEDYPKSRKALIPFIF
Description: as §1, §2

5-alpha reductase activity I compared to the negative control [1]: -64%
5-alpha reductase activity II compared to the negative control [2]: -93%
Compound: COc1ccc(-c2coc3cc(O)cc(O)c3c2=O)cc1 [Biochanin-A]
